Structures can show the parent of a compound that is named as a salt.
Experiments:
5-HT2CR = target: T1, 5-HT2CR (Homo sapiens, UniProt P28335); assay: NIMH-PDSP radioligand binding, 5-HT2C receptor
T1 sequence (P28335 33-458): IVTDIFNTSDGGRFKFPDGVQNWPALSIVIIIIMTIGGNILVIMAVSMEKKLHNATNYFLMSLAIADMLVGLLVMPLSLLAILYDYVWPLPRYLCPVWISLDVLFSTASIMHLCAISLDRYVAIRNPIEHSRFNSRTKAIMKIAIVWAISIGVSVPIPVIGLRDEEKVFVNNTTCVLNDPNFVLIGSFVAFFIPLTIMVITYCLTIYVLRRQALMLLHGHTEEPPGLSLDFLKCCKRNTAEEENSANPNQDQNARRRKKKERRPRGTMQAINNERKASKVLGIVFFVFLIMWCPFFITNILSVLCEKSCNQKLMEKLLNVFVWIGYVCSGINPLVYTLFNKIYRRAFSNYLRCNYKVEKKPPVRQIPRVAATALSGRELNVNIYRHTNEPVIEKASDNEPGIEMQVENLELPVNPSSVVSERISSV

SERT = SERT (Homo sapiens, UniProt P31645); assay: NIMH-PDSP radioligand binding, serotonin transporter
Sequence of SERT (P31645 whole entry): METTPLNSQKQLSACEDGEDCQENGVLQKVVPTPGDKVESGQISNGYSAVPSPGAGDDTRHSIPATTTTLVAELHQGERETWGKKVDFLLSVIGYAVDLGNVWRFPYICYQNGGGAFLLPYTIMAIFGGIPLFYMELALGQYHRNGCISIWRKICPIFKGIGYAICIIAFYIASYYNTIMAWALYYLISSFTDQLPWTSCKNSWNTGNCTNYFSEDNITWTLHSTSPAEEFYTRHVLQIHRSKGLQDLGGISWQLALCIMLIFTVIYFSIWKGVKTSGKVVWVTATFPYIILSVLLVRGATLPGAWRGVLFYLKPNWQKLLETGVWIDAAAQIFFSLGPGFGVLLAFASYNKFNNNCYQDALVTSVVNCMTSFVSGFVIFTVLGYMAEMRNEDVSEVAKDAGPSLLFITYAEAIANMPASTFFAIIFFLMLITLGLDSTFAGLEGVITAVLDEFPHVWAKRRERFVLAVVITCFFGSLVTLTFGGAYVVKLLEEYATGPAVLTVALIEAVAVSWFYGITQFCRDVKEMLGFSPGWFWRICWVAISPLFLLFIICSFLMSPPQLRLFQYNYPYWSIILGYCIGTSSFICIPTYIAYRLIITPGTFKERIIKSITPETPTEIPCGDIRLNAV

5-HT2AR = 5-HT2AR (Homo sapiens, UniProt P28223); assay: NIMH-PDSP radioligand binding, 5-HT2A receptor
Sequence of 5-HT2AR (P28223 whole entry): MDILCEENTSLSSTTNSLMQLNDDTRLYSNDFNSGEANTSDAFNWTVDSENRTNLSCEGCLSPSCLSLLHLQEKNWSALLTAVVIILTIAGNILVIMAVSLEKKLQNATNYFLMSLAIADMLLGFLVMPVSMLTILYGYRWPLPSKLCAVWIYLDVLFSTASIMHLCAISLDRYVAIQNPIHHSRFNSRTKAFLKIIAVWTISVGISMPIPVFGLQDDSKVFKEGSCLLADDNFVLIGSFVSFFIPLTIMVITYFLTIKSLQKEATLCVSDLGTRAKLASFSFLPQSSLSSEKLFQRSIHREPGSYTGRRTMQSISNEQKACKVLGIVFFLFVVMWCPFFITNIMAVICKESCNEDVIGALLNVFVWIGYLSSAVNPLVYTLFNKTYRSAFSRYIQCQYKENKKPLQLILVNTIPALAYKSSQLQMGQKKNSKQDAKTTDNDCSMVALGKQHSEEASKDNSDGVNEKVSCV

H1R = H1R (Homo sapiens, UniProt P35367); assay: NIMH-PDSP radioligand binding, histamine H1 receptor
Sequence of H1R (P35367 whole entry): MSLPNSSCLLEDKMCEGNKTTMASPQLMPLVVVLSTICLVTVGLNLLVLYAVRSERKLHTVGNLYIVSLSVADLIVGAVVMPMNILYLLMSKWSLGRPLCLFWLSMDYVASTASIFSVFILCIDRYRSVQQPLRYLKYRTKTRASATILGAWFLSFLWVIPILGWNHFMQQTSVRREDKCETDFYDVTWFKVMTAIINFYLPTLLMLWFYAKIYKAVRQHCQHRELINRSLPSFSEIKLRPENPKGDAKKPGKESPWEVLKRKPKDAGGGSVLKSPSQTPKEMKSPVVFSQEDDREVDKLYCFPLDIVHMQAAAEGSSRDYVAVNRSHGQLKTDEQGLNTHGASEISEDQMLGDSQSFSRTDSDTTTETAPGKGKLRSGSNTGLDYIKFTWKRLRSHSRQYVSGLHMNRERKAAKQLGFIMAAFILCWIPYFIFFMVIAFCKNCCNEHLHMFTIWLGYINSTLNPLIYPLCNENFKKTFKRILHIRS

5-HT7R = 5-HT7R (Homo sapiens, UniProt P34969); assay: NIMH-PDSP radioligand binding, 5-HT7 receptor
Sequence of 5-HT7R (P34969 whole entry): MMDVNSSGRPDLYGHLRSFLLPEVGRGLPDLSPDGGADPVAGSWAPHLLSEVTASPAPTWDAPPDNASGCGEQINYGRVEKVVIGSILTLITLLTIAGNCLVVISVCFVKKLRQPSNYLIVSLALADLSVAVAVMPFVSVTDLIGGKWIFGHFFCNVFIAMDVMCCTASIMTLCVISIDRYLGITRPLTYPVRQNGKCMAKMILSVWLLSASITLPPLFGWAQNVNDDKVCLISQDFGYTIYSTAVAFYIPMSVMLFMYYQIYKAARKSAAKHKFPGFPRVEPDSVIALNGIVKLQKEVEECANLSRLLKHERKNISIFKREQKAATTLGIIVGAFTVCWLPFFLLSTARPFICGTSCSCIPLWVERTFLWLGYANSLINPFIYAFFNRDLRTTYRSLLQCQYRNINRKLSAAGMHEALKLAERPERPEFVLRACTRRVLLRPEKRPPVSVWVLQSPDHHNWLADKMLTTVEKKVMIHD

5-HT1AR = 5-HT1AR (Homo sapiens, UniProt P08908); assay: NIMH-PDSP radioligand binding, 5-HT1A receptor
Sequence of 5-HT1AR (P08908 whole entry): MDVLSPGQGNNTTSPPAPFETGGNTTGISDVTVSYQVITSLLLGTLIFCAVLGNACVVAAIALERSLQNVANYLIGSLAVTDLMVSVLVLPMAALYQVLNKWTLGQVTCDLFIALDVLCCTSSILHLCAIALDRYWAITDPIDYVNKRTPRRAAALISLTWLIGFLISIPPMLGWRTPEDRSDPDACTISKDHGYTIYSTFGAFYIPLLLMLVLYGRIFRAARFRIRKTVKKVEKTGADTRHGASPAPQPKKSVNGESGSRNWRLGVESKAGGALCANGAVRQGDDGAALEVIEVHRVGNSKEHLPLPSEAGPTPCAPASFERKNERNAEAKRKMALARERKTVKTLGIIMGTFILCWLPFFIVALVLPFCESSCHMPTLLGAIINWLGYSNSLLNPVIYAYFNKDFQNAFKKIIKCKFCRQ

SMILES | Ki 5HT2CR (5-HT2CR) | Ki SERT (SERT) | Ki 5-HT2A (5-HT2AR) | SERT binding affinity (in words) (SERT) | further results
O=C1NCN(c2ccccc2)C12CCN(CCCCc1nc3ccccc3s1)CC2 [Compound 7, 8-(4-(benzo[d]thiazol-2-yl)butyl)-1-phenyl-1,3,8-triazaspiro[4.5]decan-4-one] | MTA | MTA |  |  | 
O=C(CCCCN1CCC2(CC1)C(=O)NCN2c1ccccc1)c1nc2ccccc2s1 [Compound 9] | MTA |  |  |  | 
O=C1NCN(c2ccccc2)C12CCN(CCCCc1nc3ccccc3o1)CC2 [Compound 10, 8-(4-(benzo[d]oxazol-2-yl)butyl)-1-phenyl-1,3,8-triazaspiro[4.5]decan-4-one] | MTA | MTA | MTA | without significant affinity | 
O=C1NCN(c2ccccc2)C12CCN(CCCCc1c[nH]c3ccccc13)CC2 [Compound 11, 8-(4-(1H-indol-3-yl)butyl)-1-phenyl-1,3,8-triazaspiro[4.5]decan-4-one] | MTA |  |  | high affinity | 5-HT2CR binding affinity (in words) (5-HT2CR): no significant affinity; H1R binding affinity (in words) (H1R): moderate binding
O=C(CCCCN1CCN(C(c2ccc(F)cc2)c2ccc(F)cc2)CC1)c1nc2ccccc2s1 [Compound 17, 1-(benzo[d]thiazol-2-yl)-5-(4-(bis(4-fluorophenyl)methyl)piperazin-1-yl)pentan-1-one dihydrochloride] |  |  |  |  | pKi ± SE 5-HT7 (5-HT7R): 562.0/ 6.3±0.1
Cl.O=C(CCCCN1C2CCC1CC(O)(c1ccc(Cl)cc1)C2)c1nc2ccccc2s1 (stereo not drawn) [Compound 22, 1-(Benzo[d]thiazol-2-yl)-5-(3-(4-chlorophenyl)-3-hydroxy-8-azabicyclo[3.2.1]octan-8-yl)-pentan-1-one hydrochloride] | MTA |  | MTA |  | Ki 5-HT1A (5-HT1AR): MTA

Source: PMC5209244 (Bioorganic & medicinal chemistry, 2016)
